Among the data in US9957261B2 (Hoffmann-La Roche Inc., priority 2014, dated 2018) are Ki and Kd values, retold here.

A value given as a limit tells only on which side of the number the result lay.

In one assay the target is mouse TAAR1 (Mus musculus (Mouse), UniProt Q923Y8). The assay is described as follows: Radioligand binding assay on mouse TAAR1. To be noted: for Ki: mouse TAAR1, membranes of stably transfected HEK-293 cells, first value of mouse/rat pair. How it is done:
(§1) Construction of TAAR Expression Plasmids and Stably Transfected Cell Lines
(§2) For the construction of expression plasmids the coding sequences of human, rat and mouse TAAR 1 were amplified from genomic DNA essentially as described by Lindemann et al.. The Expand High Fidelity PCR System (Roche Diagnostics) was used with 1.5 mM Mg^2+ and purified PCR products were cloned into pCR2.1-TOPO cloning vector (Invitrogen) following the instructions of the manufacturer. PCR products were subcloned into the pIRESneo2 vector (BD Clontech, Palo Alto, Calif.), and expression vectors were sequence verified before introduction in cell lines.
(§3) HEK293 cells (ATCC # CRL-1573) were cultured essentially as described by Lindemann et al. (2005). For the generation of stably transfected cell lines HEK293 cells were transfected with the pIRESneo2 expression plasmids containing the TAAR coding sequences (described above) with Lipofectamine 2000 (Invitrogen) according to the instructions of the manufacturer, and 24 hrs post transfection the culture medium was supplemented with 1 mg/ml G418 (Sigma, Buchs, Switzerland). After a culture period of about 10 d clones were isolated, expanded and tested for responsiveness to trace amines (all compounds purchased from Sigma) with the cAMP Biotrak Enzyme immunoassay (EIA) System (Amersham) following the non-acetylation EIA procedure provided by the manufacturer.
Radioligand Binding Assay on Mouse TAAR1
(§4) Membrane Preparation and Radioligand Binding.
(§5) HEK-293 cells stably expressing mouse TAAR1 were maintained at 37° C. and 5% CO2 in DMEM high glucose medium, containing fetal calf serum (10%, heat inactivated for 30 min at 56° C.), penicillin/streptomycin (1%), and 375 μg/ml geneticin (Gibco). Cells were released from culture flasks using trypsin/EDTA, harvested, washed twice with ice-cold PBS (without Ca^2+ and Mg^2+), pelleted at 1′000 rpm for 5 min at 4° C., frozen and stored at −80° C. Frozen pellets were suspended in 20 ml HEPES-NaOH (20 mM, pH 7.4) containing 10 mM EDTA and homogenized with a Polytron (PT 6000, Kinematica) at 14,000 rpm for 20 s. The homogenate was centrifuged at 48,000×g for 30 min at 4° C. Subsequently, the supernatant was removed and discarded, and the pellet resuspended in 20 ml HEPES-NaOH (20 mM, pH 7.4) containing 0.1 mM EDTA using the Polytron (20 s at 14,000 rpm). This procedure was repeated and the final pellet resuspended in HEPES-NaOH containing 0.1 mM EDTA and homogenized using the Polytron. Typically, aliquots of 2 ml membrane portions were stored at −80° C. With each new membrane batch the dissociation constant (Kd) was determined via a saturation curve. […] Nonspecific binding was defined as the amount of ^3[H]—(S)-4-[(ethyl-phenyl-amino)-methyl]-4,5-dihydro-oxazol-2-ylamine bound in the presence of 10 μM unlabeled ligand. All compounds were tested at a broad range of concentrations (10 pM to 10 μM) in duplicates. […] The 96 deep well plates were incubated for 1 hr at 4° C. Incubations were terminated by rapid filtration through Unifilter-96 plates (Packard Instrument Company) and glass filters GF/C (Perkin Elmer) presoaked for 1 hr in polyethylenimine (0.3%) and washed 3 times with 1 ml of cold binding buffer. After addition of 45 μl of Microscint 40 (PerkinElmer) the Unifilter-96 plate was sealed and after 1 hr the radioactivity counted using a TopCount Microplate Scintillation Counter (Packard Instrument Company).

A further assay deals with rat TAAR1 (Rattus norvegicus (Rat), UniProt Q923Y9). Briefly: Radioligand binding assay on rat TAAR1. The conditions noted are these: for Ki: rat TAAR1, membranes of stably transfected HEK-293 cells, second value of mouse/rat pair. The method, then: as §1, §2, §3
Sequence of rat TAAR1 (Q923Y9 whole entry): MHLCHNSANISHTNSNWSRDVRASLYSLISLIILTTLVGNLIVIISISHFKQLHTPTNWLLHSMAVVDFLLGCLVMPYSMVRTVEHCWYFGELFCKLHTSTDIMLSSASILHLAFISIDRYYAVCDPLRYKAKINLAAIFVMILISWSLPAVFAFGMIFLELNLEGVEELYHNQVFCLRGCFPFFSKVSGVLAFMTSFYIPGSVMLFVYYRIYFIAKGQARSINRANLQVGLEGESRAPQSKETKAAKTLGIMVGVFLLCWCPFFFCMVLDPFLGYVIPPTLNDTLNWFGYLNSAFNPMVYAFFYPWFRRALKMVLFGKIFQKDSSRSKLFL
Radioligand Binding Assay on Rat TAAR1
as §4
as §5, with “rat” for “mouse”, “[H]—(S)-4-[(ethyl-phenyl-amino)-methyl]-4,5-dihydro-oxazol-2-ylamine” for “^3[H]—(S)-4-[(ethyl-phenyl-amino)-methyl]-4,5-dihydro-oxazol-2-ylamine”

One may read the Ki as a dissociation constant, usually derived from enzyme kinetics or from competition with a known ligand. A word on the Kd: it is a measure of binding affinity in units of concentration.

Sequence of mouse TAAR1 (Q923Y8 whole entry): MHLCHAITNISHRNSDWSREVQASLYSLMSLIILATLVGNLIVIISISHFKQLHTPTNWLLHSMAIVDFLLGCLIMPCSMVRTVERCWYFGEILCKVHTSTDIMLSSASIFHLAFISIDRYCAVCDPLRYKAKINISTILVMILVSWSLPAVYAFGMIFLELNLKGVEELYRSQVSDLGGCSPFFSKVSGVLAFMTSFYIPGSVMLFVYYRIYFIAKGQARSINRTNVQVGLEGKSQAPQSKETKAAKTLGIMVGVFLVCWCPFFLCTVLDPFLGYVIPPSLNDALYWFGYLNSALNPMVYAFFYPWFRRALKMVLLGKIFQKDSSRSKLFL

As to `NC1CCc2cc(C(=O)Nc3cnc(C(F)(F)F)cn3)ccc2C1` (stereo not drawn) [Example 33, 6-Amino-N-(5-(trifluoromethyl)pyrazin-2-yl)-5,6,7,8-tetrahydronaphthalene-2-carboxamide], the Ki on mouse TAAR1 was 0.021 µM; at rat TAAR1 it was 0.0865 µM. Taken in the same sequence, the figures for `NC1CCc2cc(C(=O)Nc3ccc(Cl)cc3)ccc2C1` (stereo not drawn) [Example 57, 6-Amino-N-(4-chlorophenyl)-5,6,7,8-tetrahydronaphthalene-2-carboxamide] were 0.0116 µM and 0.0142 µM. As for `N[C@H]1CCc2cc(NC(=O)c3ccc(C(F)(F)F)nc3)ccc2C1` [Example 20, (S)—N-(6-Amino-5,6,7,8-tetrahydronaphthalen-2-yl)-6-(trifluoromethyl)nicotinamide], the Ki turned out to be 0.0265 µM at mouse TAAR1 and 0.0237 µM at rat TAAR1. Taken in the same sequence, the figures for `N[C@H]1CCc2cc(NC(=O)Nc3ccc(C(F)(F)F)cc3)ccc2C1` [Example 24, (S)-1-(6-Amino-5,6,7,8-tetrahydronaphthalen-2-yl)-3-(4-(trifluoromethyl)phenyl)urea] were 0.0011 µM and 0.0003 µM. Take `N[C@H]1COc2cc(NC(=O)c3nccc(Cl)n3)ccc2C1` [Example 82, (R)—N-(3-Aminochroman-7-yl)-4-chloropyrimidine-2-carboxamide]: the Ki was found to be 0.173 µM on mouse TAAR1 and 0.511 µM on rat TAAR1.

On to `NC1CCc2cc(NC(=O)c3n[nH]c(C4CC4)c3Br)ccc2C1` (stereo not drawn) [Example 2, N-(6-Amino-5,6,7,8-tetrahydronaphthalen-2-yl)-4-bromo-5-cyclopropyl-1H-pyrazole-3-carboxamide], for which the Ki is 0.0077 µM on mouse TAAR1 and 0.0042 µM at rat TAAR1. For `NC1CCc2cc(C(=O)Nc3ccc(C(F)(F)F)cc3)ccc2C1` (stereo not drawn) [Example 34, 6-Amino-N-(4-(trifluoromethyl)phenyl)-5,6,7,8-tetrahydronaphthalene-2-carboxamide], in that order: 0.0054 µM and 0.0039 µM. Taken in the same sequence, the figures for `COc1ccc(C(=O)Nc2ccc3c(c2)CC[C@H](N)C3)cn1` [Example 21, (S)—N-(6-Amino-5,6,7,8-tetrahydronaphthalen-2-yl)-6-methoxynicotinamide] were 0.0344 µM and 0.0513 µM. Taken in the same sequence, the figures for `CCn1nc(C(=O)Nc2ccc3c(c2)CC[C@H](N)C3)c(Br)c1OCC(F)F` [Example 52, (S)—N-(6-Amino-5,6,7,8-tetrahydronaphthalen-2-yl)-4-bromo-5-(2,2-difluoroethoxy)-1-ethyl-1H-pyrazole-3-carboxamide] were 0.0128 µM and 0.0016 µM. Regarding `N[C@H]1COc2cc(Nc3ncc(Cl)cn3)ccc2C1` [Example 93, (R)—N7-(5-Chloropyrimidin-2-yl)chroman-3,7-diamine], the inhibitory constant (Ki) was found to be 0.042 µM on mouse TAAR1 and 0.0374 µM on rat TAAR1.

Turning to `N[C@H]1CCc2cc(NC(=O)c3cccnc3F)ccc2C1` [Example 39, (S)—N-(6-Amino-5,6,7,8-tetrahydronaphthalen-2-yl)-2-fluoronicotinamide], the Ki at mouse TAAR1 was found to be 0.476 µM; on rat TAAR1 it was 0.14 µM. Taken in the same sequence, the figures for `N[C@H]1CCc2cc(NC(=O)Nc3ccc(C(F)(F)F)nc3)ccc2C1` [Example 16, (S)-1-(6-Amino-5,6,7,8-tetrahydronaphthalen-2-yl)-3-(6-(trifluoromethyl)pyridin-3-yl)urea] were 0.0045 µM and 0.0023 µM. `CCCc1cc(C(=O)Nc2ccc3c(c2)CC[C@@H](N)C3)nn1CC(F)F` [Example 4, (R)—N-(6-Amino-5,6,7,8-tetrahydronaphthalen-2-yl)-1-(2,2-difluoroethyl)-5-propyl-1H-pyrazole-3-carboxamide]: the Ki on mouse TAAR1 worked out at 0.0914 µM; at rat TAAR1, 0.0055 µM. As for `CCN(C[C@H]1COC(N)=N1)c1ccccc1` [(S)-4-[(ethyl-phenyl-amino)-methyl]-4,5-dihydro-oxazol-2-ylamine, reference compound], the Kd at mouse TAAR1 (mouse TAAR1 membranes, saturation curve, read-out: dissociation constant (Kd) of the radioligand) is around 0.7 nM; at rat TAAR1 (rat TAAR1 membranes, saturation curve, read-out: dissociation constant (Kd) of the radioligand), around 2.3 nM. Regarding `Cc1cc(C(=O)Nc2ccc3c(c2)OC[C@H](N)C3)cc(Cl)n1` [Example 89, (R)—N-(3-Aminochroman-7-yl)-2-chloro-6-methylisonicotinamide], the inhibitory constant (Ki) on mouse TAAR1 is 0.0088 µM; on rat TAAR1 it was 0.0243 µM. Taken in the same sequence, the figures for `N[C@H]1COc2cc(NC(=O)c3ccc(F)c(F)c3)ccc2C1` [Example 87, (R)—N-(3-Aminochroman-7-yl)-3,4-difluorobenzamide] were 0.0009 µM and 0.0189 µM. In the case of `N[C@H]1CCc2cc(NC(=O)Nc3ccc(Cl)cc3)ccc2C1` [Example 74, (S)-1-(6-Amino-5,6,7,8-tetrahydronaphthalen-2-yl)-3-(4-chlorophenyl)urea], the Ki on mouse TAAR1 turned out to be 0.001 µM; on rat TAAR1, 0.0005 µM.

As to `CC(=O)Nc1cc(C(=O)Nc2ccc3c(c2)CC[C@H](N)C3)ccn1` [Example 18, (S)-2-Acetamido-N-(6-amino-5,6,7,8-tetrahydronaphthalen-2-yl)isonicotinamide], the Ki amounted to 0.71 µM at mouse TAAR1 and 0.232 µM on rat TAAR1. In the case of `N[C@H]1CCc2cc(NC(=O)c3ccc(OCC(F)(F)F)nc3)ccc2C1` [Example 22, (S)—N-(6-Amino-5,6,7,8-tetrahydronaphthalen-2-yl)-6-(2,2,2-trifluoroethoxy)nicotinamide], the Ki was determined as 0.0033 µM at mouse TAAR1 and 0.0016 µM at rat TAAR1. For `NC1CCc2cc(C(=O)NCc3ccc(C(F)(F)F)cc3)ccc2C1` (stereo not drawn) [Example 35, 6-Amino-N-(4-(trifluoromethyl)benzyl)-5,6,7,8-tetrahydronaphthalene-2-carboxamide], in that order: 0.0055 µM and 0.035 µM.

With `N[C@H]1CCc2c(ccc(NC(=O)c3ccc(Cl)nc3)c2Cl)C1` [Example 76, (S)—N-(6-Amino-1-chloro-5,6,7,8-tetrahydronaphthalen-2-yl)-6-chloronicotinamide], the Ki at mouse TAAR1 was above 1.51 µM; at rat TAAR1 it was 0.302 µM. Turning to `N[C@H]1COc2cc(NC(=O)c3ncc(C(F)(F)F)cn3)ccc2C1` [Example 84, (R)—N-(3-Aminochroman-7-yl)-5-(trifluoromethyl)pyrimidine-2-carboxamide], the inhibitory constant (Ki) was determined as 0.0371 µM at mouse TAAR1 and 0.0758 µM at rat TAAR1. In the case of `N[C@H]1CCc2cc(NCc3ccc(Cl)cc3)ccc2C1` [Example 75, (S)—N6-(4-Chlorobenzyl)-1,2,3,4-tetrahydronaphthalene-2,6-diamine], the inhibitory constant (Ki) at mouse TAAR1 came to 0.0048 µM.
